Assay results: patent US5908824A, “Nasally administrable compositions containing physiologically active peptides” (Dott Research Laboratory, priority 1995, dated 1999)

Test system: blood sugar
Experiment: Test Example 1: average fall of the blood sugar in rabbits after insulin
Format: in vivo, New Zealand rabbits
Conditions: subcutaneous 2 IU/rabbit, level at 0 min = 100%
Experimental: The composition contained insulin at […] (5 insulin units (IU)/rabbit).
The composition was nasally administered to six male New Zealand rabbits at one time, and the average fall of the blood sugar was measured at 0, 15, 30, 60, 120 and 180 min after administration.
For comparison, 2 IU/rabbit of insulin was subcutaneously injected to six male New Zealand rabbits and the average fall of the blood sugar was measured at 0, 60, 120, 240, and 360 min after administration.
The results are shown in Table 1, in which the average fall of the blood sugar is indicated in percentage assuming the blood sugar level at 0 min to be 100%.

Which “Blood sugar level (% of 0-min level)” value (0 min after administration) does the source give for insulin [Control] here?
The value was 100%.

What about the “Blood sugar level (% of 0-min level)” value (60 min after administration) of the same substance?
Its value is 57%.

What about the “Blood sugar level (% of 0-min level)” value (120 min after administration) of the same substance?
The value was 56%.

And the “Blood sugar level (% of 0-min level)” value (240 min after administration)?
Its value is 84%.

What about the “Blood sugar level (% of 0-min level)” value (360 min after administration) of the same substance?
The value was 94%.
